Measured values reported in patent US20140228299A1, “PROPHYLACTIC AND THERAPEUTIC AGENT FOR NEUROLOGICAL DISEASES USING LIPOPROTEINS AND PROPHYLACTIC AND THERAPEUTIC METHOD FOR NEUROLOGICAL DISEASES” (National University Corporation Tokyo Medical and Dental …, priority 2011, published 2014).
Non-standard residues stand in square brackets, D forms with d. Residues, ends and D or L forms follow the SMILES beside them. *: point of attachment. Nle = CCCC[C@H](N)C(=O)O; Cbz = O=C(OCc1ccccc1)*; CH2F = FC*

Test system: retinal ganglion cells
Assay: Glutamic acid-induced apoptosis of cultured retinal ganglion cells (Hoechst 33342 or calcein AM/propidium iodide staining)
Type: cell-based, rat
Settings: for apoptosis of retinal cells induced by glutamic acid (apoptosis-like cells): Hoechst 33342
Procedure: The primary culture of the retinal glia cells was carried out using two-day-old Sprague Dawley (SD) baby rats in accordance with a somewhat modified method (Hayashi et al., J. Biol. Chem. 2009) of the method of Barres et al. (Barres, et al., 1988). The isolated retinal glia cells (RGC) were suspended in a base culture medium of a RGC medium (1 mM glutamine, 5 μg/mL insulin, 60 μg/mL N-acetylcysteine, 62 ng/mL progesterone, 16 μg/mL putrescine, 40 ng/mL sodium selenite, 0.1 mg/mL bovine serum albumin, 40 ng/mL triiodothyronine, 0.1 mg/mL transferrin, 1 mM sodium pyruvate, 2% B27 supplement (Invitrogen, Carlsbad, Calif.), 10 μM forskolin (Sigma, St. Louis, Mo.), 50 ng/mL brain-derived neurotrophic factor (BDNF; PeproTech, Rocky Hill, N.J.), 50 ng/mL ciliary neurotrophic factor (CNTF; Peprotech), and 50 ng/mL basic fibroblast growth factor (bFGF; PeproTech). A 96-well plate was coated with poly-d-lysine (Sigma) and laminin (Sigma), and RGC was placed at the rate of 5,000 cells per well for the 96-well place, 5,000 cells per each culture insert for microdish, or 15,000 cells per dish for compartmentalized culture, followed by incubating for at least 10 days before experimentation.
In the figure, Cant represents a non-treated group, Glu represents a group with 300 μM glutamic acid added, and +glial LP represents a group with 300 μM glutamate+glia-cell-derived lipoprotein containing apolipoprotein E added. Glial LP was added in the concentration of 1 μg cholesterol/mL. After treatment, the rate of apoptosis-like cells was computed by observing the aggregation of the nuclei (a: nuclear staining with Hoechst 33342) or the sustained impermeability of esterase activity/membrane (b: calcein AM/Propidium Iodide staining) in 24 hours.
The induction and detection of apoptosis in RGC were performed in the manner as described below. Specifically, RGC was washed twice with Hanks' balanced salt solution (HBSS) containing 2.4 mM CaCl2 and 20 mM HEPES, but not containing magnesium, and incubated at 37° C. for 2 hours in a medium prepared by adding 300 μM glutamate and 10 μM glycine to the above Hanks' balanced salt solution. After treatment with glutamate, RGC was incubated at 37° C. for 22 hours in a RGC culture medium containing no forskolin, BDNF, CNTF and bFGF. In order to detect apoptosis, RGC was stained with 1 μg/mL of Hoechst 33342 (346-07951, Dojindo, Kumamoto, Japan) or 1 μg/mL of calcein-AM/propidium iodide (341-07381, Dojindo). The fluorescence images were observed by Olympus IX71 microscope. The fragmented or aggregated nuclei stained with the above Hoechst reagent were counted as apoptotic nuclei, and round and smooth nuclei were counted as sound nuclei. As the sound nuclei were not stained with propidium iodide, the nuclei stained with propidium iodide were counted as apoptotic nuclei. More than 300 nuclei were counted in each group.
The apoptosis of RGC was measured in the following manner. The RGC subjected to the primary incubated was incubated two times at 37° C. for 15 minutes using Hanks' Balanced Salt Solution (HBSS) containing 2.4 mM CaCl2 and 20 mM 4-(2-hydroxyethyl)-pyperazine-1-ethanesulfonic acid (HEPES) but containing no magnesium and then washed. […], the magnesium was removed from the washing solution. Thereafter, the RGC was treated or not treated with […] (a co-activating agent for the NMDA receptor) in HBSS containing 2.4 mM CaCl2 and 20 mM HEPES (without magnesium) and then incubated at 37° C. for 2 hours. A control (HBSS containing 2.4 mM CaCl2 and 20 mM HEPES (without containing magnesium)) or the RGC treated or not treated with glutamic acid was incubated at 37° C. for 22 hours in the same medium as used for the RGC (without forskolin, brain-derived neurotrophic factor, ciliary neurotrophic factor and basic fibroblast growth factor). […]

C[C@]12N[C@H](Cc3ccccc31)c1ccccc12 [MK 801, reference compound]
apoptosis of retinal cells induced by glutamic acid (apoptosis-like cells) (inhibitor 10 μM): inhibition of apoptosis

COC(=O)C[C@H](NC(=O)[C@H](C)NC(=O)[C@@H](NC(=O)OCc1ccccc1)C(C)C)C(=O)CF [Z-VAD-FMK, reference compound] (Cbz-Val-Ala-Asp(OMe)-CH2F)
apoptosis of retinal cells induced by glutamic acid (apoptosis-like cells) (inhibitor 20 μM): apoptosis inhibition

CCCC[C@@H](C=O)NC(=O)[C@H](CC(C)C)NC(=O)[C@H](CC(C)C)NC(C)=O [ALLN, reference compound] (Ac-Leu-Leu-[Nle]-aldehyde)
apoptosis of retinal cells induced by glutamic acid (apoptosis-like cells) (inhibitor 1 μM): inhibition of apoptosis

B1: α2-macroglobulin: α2-macroglobulin activated with methylamine; hinders neuroprotection by apoE-containing lipoprotein (protein, UniProt P01023 24-1474, looked up)
Alpha-2-macroglobulin: SVSGKPQYMVLVPSLLHTETTEKGCVLLSYLNETVTVSASLESVRGNRSLFTDLEAENDVLHCVAFAVPKSSSNEEVMFLTVQVKGPTQEFKKRTTVMVKNEDSLVFVQTDKSIYKPGQTVKFRVVSMDENFHPLNELIPLVYIQDPKGNRIAQWQSFQLEGGLKQFSFPLSSEPFQGSYKVVVQKKSGGRTEHPFTVEEFVLPKFEVQVTVPKIITILEEEMNVSVCGLYTYGKPVPGHVTVSICRKYSDASDCHGEDSQAFCEKFSGQLNSHGCFYQQVKTKVFQLKRKEYEMKLHTEAQIQEEGTVVELTGRQSSEITRTITKLSFVKVDSHFRQGIPFFGQVRLVDGKGVPIPNKVIFIRGNEANYYSNATTDEHGLVQFSINTTNVMGTSLTVRVNYKDRSPCYGYQWVSEEHEEAHHTAYLVFSPSKSFVHLEPMSHELPCGHTQTVQAHYILNGGTLLGLKKLSFYYLIMAKGGIVRTGTHGLLVKQEDMKGHFSISIPVKSDIAPVARLLIYAVLPTGDVIGDSAKYDVENCLANKVDLSFSPSQSLPASHAHLRVTAAPQSVCALRAVDQSVLLMKPDAELSASSVYNLLPEKDLTGFPGPLNDQDNEDCINRHNVYINGITYTPVSSTNEKDMYSFLEDMGLKAFTNSKIRKPKMCPQLQQYEMHGPEGLRVGFYESDVMGRGHARLVHVEEPHTETVRKYFPETWIWDLVVVNSAGVAEVGVTVPDTITEWKAGAFCLSEDAGLGISSTASLRAFQPFFVELTMPYSVIRGEAFTLKATVLNYLPKCIRVSVQLEASPAFLAVPVEKEQAPHCICANGRQTVSWAVTPKSLGNVNFTVSAEALESQELCGTEVPSVPEHGRKDTVIKPLLVEPEGLEKETTFNSLLCPSGGEVSEELSLKLPPNVVEESARASVSVLGDILGSAMQNTQNLLQMPYGCGEQNMVLFAPNIYVLDYLNETQQLTPEIKSKAIGYLNTGYQRQLNYKHYDGSYSTFGERYGRNQGNTWLTAFVLKTFAQARAYIFIDEAHITQALIWLSQRQKDNGCFRSSGSLLNNAIKGGVEDEVTLSAYITIALLEIPLTVTHPVVRNALFCLESAWKTAQEGDHGSHVYTKALLAYAFALAGNQDKRKEVLKSLNEEAVKKDNSVHWERPQKPKAPVGHFYEPQAPSAEVEMTSYVLLAYLTAQPAPTSEDLTSATNIVKWITKQQNAQGGFSSTQDTVVALHALSKYGAATFTRTGKAAQVTIQSSGTFSSKFQVDNNNRLLLQQVSLPELPGEYSMKVTGEGCVYLQTSLKYNILPEKEEFPFALGVQTLPQTCDEPKAHTSFQISLSVSYTGSRSASNMAIVDVKMVSGFIPLKPTVKMLERSNHVSRTEVSSNHVLIYLDKVSNQTLSLFFTVLQDVPVRDLKPAIVKVYDYYETDEFAIAEYNAPCSKDLGNA
effect on the neuroprotective effects of the lipoprotein containing apoE (Glu+100 ng protein/mL E-LP in the presence of a2M): hinders the neuroprotective effects
